# Laboratory results taken from patent publication US10632064B2, “Topical regional neuro affective therapy with cannabinoid combination products” (Afgin Pharma, LLC, priority 2015, dated 2020).
# Legend:
# [1] = tested on: acute paranoid schizophrenia; conditions: after 2 weeks; cited from earlier work
# [2] = tested on: human patient having a remote head injury, s/p 4 craniotomies and intractable seizures; experiment: Example 7: topical cannabidiol 40 mg at the BONATH, intractable seizures, EEG; assay type: in vivo; conditions: 25 mg milnacipran topical nuchal after cannabidiol 40 mg
# Experimental: The efficacy of a topical cannabidiol formulation was studied in a human patient having a remote head injury, s/p 4 craniotomies and intractable seizures. The patient was treated with cannabidiol 40 mg applied to the BONATH in a topical formulation. There was attenuation of associated focal EEG abnormalities.
Structure (SMILES),psychotic symptoms [1],EEG after further topical nuchal treatment [2]
CCN1CCCC1CNC(=O)c1cc(S(=O)(=O)CC)c(N)cc1OC (centres unmarked) [amisulpride],significant decrease in psychotic symptoms,–
CCN(CC)C(=O)C1(c2ccccc2)CC1CN (centres unmarked) [milnacipran],–,further attenuated
